Converted amounts (≈) assume the structure as drawn. The source made the active and inactive calls. The calls are words filed in the database; no cut-off is given here.
Experiments:
[1] = target: GTPase KRas (Homo sapiens, UniProt P01116); assay: Inhibition of KRAS in human MIAPaca2 cells assessed as decrease in EGF-stimulated ERK1/2 phosphorylation preincubated for 2 hrs followed by EGF stimulation; assay type: cell-based
[2] = Clearance in BALB/c mouse at 1 mg/kg, iv or 10 mg/kg, po; assay type: ADME, organism-based; conditions: in vivo
[3] = Half life in BALB/c mouse at 1 mg/kg, iv or 10 mg/kg, po; assay type: ADME, organism-based; conditions: in vivo
[4] = Oral bioavailability in BALB/c mouse at 10 mg/kg; assay type: ADME, organism-based; conditions: in vivo
[5] = Protein binding in BALB/c mouse plasma assessed as unbound fraction by ultracentrifugation; assay type: ADME, cell-free
[6] = Ratio of unbound plasma concentration in BALB/c mouse at 10 mg/kg to IC50 for inhibition of KRAS in human MIAPaca2 cells assessed as decrease in EGF-stimulated ERK1/2 phosphorylation preincubated for 2 hrs followed by EGF stimulation; assay type: organism-based; conditions: in vivo
[7] = test system: MIA PaCa-2; assay: Antiproliferative activity against human MIAPaCa2 cells harboring KRAS G12C point mutant assessed as cell growth inhibition after 72 hrs by Celltiter-Glo luminescent cell viability assay; assay type: functional, cell-based; conditions: MIA PaCa-2, 72 h
[8] = test system: A549; assay: Antiproliferative activity against human A549 cells harboring KRAS G12S point mutant assessed as cell growth inhibition after 72 hrs by Celltiter-Glo luminescent cell viability assay; assay type: functional, cell-based; conditions: A549, 72 h
[9] = Intrinsic clearance in mouse cryopreserved hepatocytes assessed per 10^6 cells at 0.5 uM measured upto 60 mins by LCMS analysis; assay type: ADME, cell-based, Hepatocyte; conditions: read-out: CLH
[10] = Intrinsic clearance in human cryopreserved hepatocytes assessed per 10^6 cells at 0.5 uM measured upto 60 mins by LCMS analysis; assay type: ADME, cell-based, Hepatocyte; conditions: read-out: CLH
[11] = Permeability of compound across apical to basolateral membrane in MDCK2 cells at 10 to 50 uM incubated for 2 hrs under shaking condition by LC-MS/MS analysis; assay type: ADME, cell-based, Canis lupus familiaris, MDCK-II; conditions: dog, MDCK; read-out: permeability
[12] = Solubility of compound in PBS buffer at pH 7.4 incubated for 48 to 72 hrs under shaking conditions by LCMS analysis; assay type: physicochemical
[13] = Solubility of compound in FaSSIF incubated for 48 to 72 hrs under shaking conditions by LCMS analysis; assay type: physicochemical
[14] = Solubility of compound in 0.01N HCl at pH 2 incubated for 48 to 72 hrs under shaking conditions by LCMS analysis; assay type: physicochemical
[15] = test system: Mus musculus; assay: Decrease in ERK1/ERK2 phosphorylation in human MIAPaCa2 cells xenografted in athymic nude mouse at 10 to 100 mg/kg, po administered as single dose measured after 60 to 120 mins post-treatment; assay type: functional, organism-based
[16] = target: GTPase KRas (Homo sapiens, UniProt P01116, C118A/G12C); assay: Inhibition of GDP bound recombinant human His-tagged KRAS G12C/C118A mutant (1 to 169 residues) assessed as reduction in SOS1-mediated GDP/GTP nucleotide exchange by measuring the disruption between GDP-bound recombinant His-tagged KRAS G12C/C118A (1 to 169 residues) and Ras binding domain of GST-tagged c-RAF (1 to 149 residues) preincubated for 5 mins followed by SOS1 and GTP addition and further incubated for 30 mins by AlphaLISA assay
[17] = Half life of compound at 25 degree C; assay type: physicochemical
[18] = Volume of distribution at steady state in BALB/c mouse at 1 mg/kg, iv or 10 mg/kg, po; assay type: ADME, organism-based; conditions: in vivo, read-out: Vdss
[19] = Clearance in Sprague-Dawley rat at 1 mg/kg, iv or 10 mg/kg, po; assay type: ADME, organism-based; conditions: in vivo
[20] = Volume of distribution at steady state in Sprague-Dawley rat at 1 mg/kg, iv or 10 mg/kg, po; assay type: ADME, organism-based; conditions: in vivo, read-out: Vdss
[21] = Half life in Sprague-Dawley rat at 1 mg/kg, iv or 10 mg/kg, po; assay type: ADME, organism-based; conditions: in vivo
[22] = Oral bioavailability in Sprague-Dawley rat at 10 mg/kg; assay type: ADME, organism-based; conditions: in vivo
[23] = Clearance in Beagle dog at 1 mg/kg, iv or 10 mg/kg, po; assay type: ADME, organism-based, Canis lupus familiaris; conditions: in vivo
[24] = Volume of distribution at steady state in Beagle dog at 1 mg/kg, iv or 10 mg/kg, po; assay type: ADME, organism-based, Canis lupus familiaris; conditions: in vivo, read-out: Vdss
[25] = Half life in Beagle dog at 1 mg/kg, iv or 10 mg/kg, po; assay type: ADME, organism-based, Canis lupus familiaris; conditions: in vivo
[26] = Oral bioavailability in Beagle dog at 10 mg/kg; assay type: ADME, organism-based, Canis lupus familiaris; conditions: in vivo
[27] = Protein binding in plasma of BALB/c mouse assessed as unbound fraction at […] by ultracentrifugation; assay type: ADME
[28] = Protein binding in plasma of Sprague-Dawley rat assessed as unbound fraction at […] by ultracentrifugation; assay type: ADME, cell-free
[29] = Protein binding in plasma of Beagle dog assessed as unbound fraction at […] by ultracentrifugation; assay type: ADME, cell-free, Canis lupus familiaris
[30] = Protein binding in plasma of human assessed as unbound fraction at […] by ultracentrifugation; assay type: ADME, cell-free
[31] = Half life of compound in aqueous phosphate buffer at pH 7.4 and at 37 degree C in presence of 5 mM GSH; assay type: physicochemical; conditions: aqueous phosphate buffer with 5 mM GSH
[32] = test system: Mus musculus; assay: Decrease in ERK1/ERK2 phosphorylation in human MIAPaCa2 cells xenografted in athymic nude mouse at > 10 mg/kg, po administered as single dose measured after 60 to 120 mins post-treatment; assay type: functional, organism-based
[33] = Time taken to achieve Cmax in plasma of athymic nude mouse xenografted with human MIAPaCa2 cells at > 10 mg/kg, po administered as single dose; assay type: ADME, organism-based; conditions: read-out: tCmax (converted)
[34] = Time taken to achieve Cmax in tumor of athymic nude mouse xenografted with human MIAPaCa2 cells at > 10 mg/kg, po administered as single dose; assay type: ADME, organism-based, Neoplasm; conditions: read-out: tCmax (converted)
[35] = Tmin in plasma of athymic nude mouse xenografted with human MIAPaCa2 cells at > 10 mg/kg, po administered as single dose; assay type: ADME, organism-based; conditions: in vivo
[36] = test system: MIA PaCa-2; assay: Antitumor activity against human MIAPaCa2 cells harboring KRAS G12C point mutant xenografted in athymic nude mouse assessed as tumor growth inhibition at 10 mg/kg, po qd measured after 26 days relative to control; assay type: functional
[37] = test system: MIA PaCa-2; assay: Antitumor activity against human MIAPaCa2 cells harboring KRAS G12C point mutant xenografted in athymic nude mouse assessed as tumor regression at 30 mg/kg, po qd measured after 26 days relative to control; assay type: functional
[38] = test system: MIA PaCa-2; assay: Antitumor activity against human MIAPaCa2 cells harboring KRAS G12C point mutant xenografted in athymic nude mouse assessed as tumor regression at 100 mg/kg, po qd measured after 26 days relative to control; assay type: functional
[39] = test system: MIA PaCa-2; assay: Antitumor activity against human MIAPaCa2 cells harboring KRAS G12C point mutant xenografted in athymic nude mouse assessed as tumor regression at >= 30 mg/kg, po qd measured after 26 days; assay type: functional, organism-based
[40] = Unbound plasma concentration in athymic nude mouse xenografted with human MIAPaCa2 cells at 10 mg/kg, po qd after 8 hrs post-last dose; assay type: ADME, organism-based; conditions: in vivo

C=CC(=O)N1CCN(c2nc(=O)n(-c3c(C4CC4)ncnc3C3CC3)c3nc(-c4c(O)cccc4F)c(Cl)cc23)[C@@H](C)C1
IC50 [1]: 36 nM | clearance [2]: 55 mL/min/kg | half-life [3]: 30 min | bioavailability [4]: 7% | fraction unbound [5]: 0.08 | Ratio [6]: 0.6

C=CC(=O)N1CCN(c2nc(=O)n(-c3c(C)cccc3C(C)C)c3nc(-c4c(O)cccc4F)c(Cl)cc23)[C@@H](C)C1
IC50 [1]: 28 nM | IC50 [7]: 2 nM | IC50 [8]: 11900 nM | hepatocyte CLint at 0.5 µM [9]: 102 µL/min/1e6 cells | hepatocyte CLint at 0.5 µM [10]: 30 µL/min/1e6 cells | Papp A→B at 2 h, up to 50 µM [11]: 15 ×10⁻⁶ cm/s | solubility thermodynamic [12]: 12 µM (≈ 6.91 µg/mL) | solubility thermodynamic [13]: 204 µM (≈ 118 µg/mL) | solubility thermodynamic [14]: 9 µM (≈ 5.18 µg/mL) | clearance [2]: 23.3 to 45 mL/min/kg | half-life [3]: 30 to 54 min | bioavailability [4]: 4 to 21% | fraction unbound [5]: 0.03 | Ratio [6]: 4.5 | inhibition [15]: Active

C=CC(=O)N1CCN(c2nc(=O)n(-c3c(CC)cccc3CC)c3nc(-c4c(O)cccc4F)c(Cl)cc23)[C@@H](C)C1
IC50 [16]: 68 nM | IC50 [1]: 36 nM | clearance [2]: 55 mL/min/kg | half-life [3]: 30 min | bioavailability [4]: 8% | fraction unbound [5]: 0.03 | Ratio [6]: 0.8

C=CC(=O)N1CCN(c2nc(=O)n(-c3ccccc3C(C)C)c3nc(-c4c(O)cccc4F)c(Cl)cc23)[C@@H](C)C1 (stereo in doubt; (S)-18)
t1/2 [17]: 190 h

C=CC(=O)N1CCN(c2nc(=O)n(-c3ccccc3C(C)C)c3nc(-c4c(O)cccc4F)c(Cl)cc23)[C@@H](C)C1 (stereo in doubt; (R)-18)
IC50 [16]: 51 nM | IC50 [1]: 44 nM | IC50 [7]: 5 nM | IC50 [8]: 14200 nM | hepatocyte CLint at 0.5 µM [9]: 119 µL/min/1e6 cells | hepatocyte CLint at 0.5 µM [10]: 38 µL/min/1e6 cells | Papp A→B at 2 h, up to 50 µM [11]: 9 ×10⁻⁶ cm/s | solubility thermodynamic [12]: 9 µM (≈ 5.06 µg/mL) | solubility thermodynamic [13]: 184 µM (≈ 103 µg/mL) | solubility thermodynamic [14]: 7 µM (≈ 3.93 µg/mL) | clearance [2]: 6.67 mL/min/kg | Vd [18]: 0.4 L/kg | half-life [3]: 78 min | bioavailability [4]: 33% | t1/2 [17]: 5 h

C=CC(=O)N1CCN(c2nc(=O)n(-c3c(C)ccnc3C(C)C)c3nc(-c4c(O)cccc4F)c(F)cc23)[C@@H](C)C1 [SOTORASIB]
IC50 [7]: 5 nM | IC50 [8]: 36500 nM | hepatocyte CLint at 0.5 µM [9]: 36 µL/min/1e6 cells | hepatocyte CLint at 0.5 µM [10]: 9 µL/min/1e6 cells | Papp A→B at 2 h, up to 50 µM [11]: 6 ×10⁻⁶ cm/s | solubility thermodynamic [12]: 423 µM (≈ 237 µg/mL) | solubility thermodynamic [13]: 492 µM (≈ 276 µg/mL) | solubility thermodynamic [14]: 499 µM (≈ 280 µg/mL) | clearance [2]: 26.7 mL/min/kg | Vd [18]: 0.7 L/kg | half-life [3]: 30 min | bioavailability [4]: 22 to 40% | clearance [19]: 56.7 mL/min/kg | Vd [20]: 2 L/kg | half-life [21]: 30 min | bioavailability [22]: 2.8% | clearance [23]: 36.7 mL/min/kg | Vd [24]: 0.73 L/kg | half-life [25]: 24 min | bioavailability [26]: 0.34% | fraction unbound at […] [27]: 0.06 | fraction unbound at […] [28]: 0.05 | fraction unbound at […] [29]: 0.17 | fraction unbound at […] [30]: 0.09 | half-life [31]: 200 min | inhibition [32]: Active | Tmax [33]: 30 min | Tmax [34]: 30 min | Tmin [35]: 120 min | TGI [36]: 86% | inhibition (INH) [37]: 34% | inhibition (INH) [38]: 62% | inhibition [39]: Active | Cp(f) [40]: < 1 nM

C=CC(=O)N1CCN(c2nc(=O)n(-c3scnc3C(C)C)c3nc(-c4c(O)cccc4F)c(Cl)cc23)[C@@H](C)C1
IC50 [1]: 63 nM | clearance [2]: 36.7 mL/min/kg | half-life [3]: 66 min | bioavailability [4]: 22% | fraction unbound [5]: 0.02 | Ratio [6]: 1.5

C=CC(=O)N1CCN(c2nc(=O)n(-c3c(C(C)C)ncnc3C(C)C)c3nc(-c4c(O)cccc4F)c(Cl)cc23)[C@@H](C)C1
IC50 [16]: 21 nM | IC50 [1]: 25 nM | clearance [2]: 38.3 mL/min/kg | half-life [3]: 48 min | bioavailability [4]: 13% | fraction unbound [5]: 0.03 | Ratio [6]: 0.8

C=CC(=O)N1CCN(c2nc(=O)n(-c3c(C(C)C)ccnc3C)c3nc(-c4c(O)cccc4F)c(Cl)cc23)[C@@H](C)C1
IC50 [7]: 3 nM | IC50 [8]: 32400 nM | hepatocyte CLint at 0.5 µM [9]: 96 µL/min/1e6 cells | hepatocyte CLint at 0.5 µM [10]: 5 µL/min/1e6 cells | Papp A→B at 2 h, up to 50 µM [11]: 2 ×10⁻⁶ cm/s | solubility thermodynamic [12]: 335 µM (≈ 193 µg/mL) | solubility thermodynamic [13]: 435 µM (≈ 251 µg/mL) | solubility thermodynamic [14]: 534 µM (≈ 308 µg/mL) | clearance [2]: 23.3 mL/min/kg | Vd [18]: 1.4 L/kg | half-life [3]: 24 min | bioavailability [4]: < 0.5%

From ChEMBL document CHEMBL4354832, “Discovery of a Covalent Inhibitor of KRASG12C (AMG 510) for the Treatment of Solid Tumors” (J Med Chem, 2020)
